The compounds below were run on body odor (assay: Neutralization of body odor: specimen on left armpit vs anti-transpirant base suspension on right armpit, worn T-shirt rated by trained persons). Details: statement in words on the body odor test; 0.3 wt. % in anti-transpirant base suspension.
Assay type: in vivo, human
Method: The following anti-transpirant base suspension was used to determine the synergistic effect with respect to the neutralization of body odor (values in wt. %):
Each of the following cyclical alcohols of the Formula (I) and/or menthyl compounds of the Formula (II) were added to said composition, wherein the total concentration of alcohol and/or menthyl compound in the suspension is 0.3 wt. % (all values in wt. %, relative to the used anti-transpirant suspension):
Said suspensions, each with a weight ratio of 15:85, were then placed in aerosol cans with a propellant mixture of propane and n-butane (weight ratio 15:85). Specimens No. 1 to 11 were each applied to the left armpit, the anti-transpirant base suspension to the right armpit. 24 hours after application, the body odor on the worn T-shirt on the left armpit (treated with specimens No. 1 to 11) were compared to the body odor of the right armpit (treated with anti-transpirant base suspension) by trained persons. The following rating scale was used: 0=no difference between specimen No. 1 to 11 and anti-transpirant base suspension; +=body odor reduced compared to anti-transpirant base suspension; ++=body odor no longer discernible on the T-shirt.

Q: How did the deodorizing effect turn out when `CC(O)C1CCCCC1` (stereo not drawn) [1-cyclohexylethanol] was run?
A: deodorizing effect

Q: Which deodorizing effect does the source give for `CC(CO)CCCC1CCCCC1` (stereo not drawn) [2-methyl-5-cyclohexylpentanol] here?
A: a deodorizing effect is achieved

Q: With `CC(=O)O[C@@H]1C[C@H](C)CC[C@H]1C(C)C` [menthylacetate] as the compound, how does the deodorizing effect read?
A: deodorizing effect

— patent publication US10722437B2, “Cosmetic agents with “improved protection against body odor”” (Henkel AG & Co. KGaA, priority 2016, dated 2020)
